The values below come from US5808109A, “Compounds that inhibit complement and/or suppress immune activity” (T Cell Sciences, Inc., priority 1995, dated 1998).

Test [1] relates to alternative complement pathway. Briefly: Inhibition of alternative pathway mediated hemolysis, rabbit erythrocytes, human serum. The format is biochemical. As to conditions: Table XIV, human serum 1 in 24, read-out: Alternative pathway AH50. Here is the method:
The capacity of the substituted dihydrobenzofurans to inhibit the alternative complement pathway was assessed using the modified method of Platts-Mills and Ishizaka, 1974, J. Immunol., 113:348-358. Essentially, rabbit erythrocytes were lysed using human serum as complement in gelatin veronal buffer (GVB, Sigma, St. Louis, Mo.) with added EGTA (ethylene glycol-bis[β-aminoethyl ether]N,N,N^1,N^1 -tetraacetic acid) and Mg^2+ to 8 mM and 2 mM, respectively. Rabbit erythrocytes (4.5×10^6 cells/ml), human serum (1 in 24 dilution), and the compounds to be tested were incubated one hour at 37° C. in a V-bottom microtiter plate, cells pelleted by centrifugation, the supernatants transferred to a flat-bottom microtiter plate, and the absorbance at 410 nm determined. Samples were paired with identical controls lacking human serum (complement-independent lysis). Both samples and controls were run in triplicate. Control values were subtracted from sample values and the fractional inhibition was determined relative to the uninhibited (no added compound) sample. Results are reported as the concentration of compound yielding fifty per cent (50%) inhibition, AH50. The AH50 values for several of the compounds are included along with the results of other in vitro assays in Table XIV.

Test [2] concerns hyperacute graft rejection. The experiment in a line: Guinea pig-to-rat cardiac transplant (discordant xenograft). Type of test: in vivo. As to conditions: 28 mg/rat intravenous bolus; for Graft survival time: individual animals. Here is the method:
The effects of compounds 68 and 44a on hyperacute graft rejection were tested in a model of discordant xenografting. The methods were the same as described previously (Prewitt et al., 1991, Transplantation 52:868-873) except that the test compounds were substituted for the active agent (sCR1) of the earlier study. As indicated in the earlier study, male Lewis rats, 12-16 weeks of age, and male Hartley guinea pigs, 4-10 weeks of age (Charles River, Wilmington, Mass.) served as cardiac xenograft recipients and donors, respectively. Under Halothane anesthesia, heterotopic cardiac xenotransplantation was performed by a modification of the microvascular technique of Ono and Lindsey, 1990, J. Thorac. Cardiovas.
Cardiac xenografts were evaluated visually over the first 30 minutes following reperfusion and then, following abdominal closure, every 10 minutes by palpation until rejection. Rejection was defined as total cessation of cardiac xenograft contraction and was confirmed by direct visualization and histological examination. […] Control animals received similar volumes of PBS. Three (n=3) control animals were tested concurrent with the animals receiving compound 68; data from historic controls (n=13) subjected to the same procedure and previously reported (Pruitt et al., 1991, Transplantation 52:868-873) are also included for comparison. Table XV includes the xenograft survival times (minutes) for individual animals and the means and standard errors of the mean (SEM) for the various groups.

The next test relates to human complement. Briefly: Inhibition of complement-mediated hemolysis, human serum, sensitized sheep erythrocytes. The format is biochemical. Here is the method: The ability to inhibit complement was also tested by assaying for inhibition of complement-mediated red cell lysis (hemolysis). The inhibition of hemolysis was determined as a function of compound concentration. The compounds to be tested were diluted in 0.1M Hepes buffer (0.15N NaCl, pH 7.4), and 50 μl were added to each well of a V-bottom microtiter plate. Human serum, used as the complement source, was diluted 1 to 500 in Hepes buffer, and 50 μl were added to each well. Next, commercially available sheep erythrocytes with anti-sheep antibody (Diamedix Cat. No. 789-001) were used as received and added at 100 μl/well to initiate the complement pathway leading to hemolysis. The plate was incubated for 60 minutes at 37° C. and then centrifuged at 500×g for 10 minutes. The supernatants were removed and placed in a flat-bottom microtiter plate. The extent of hemolysis was measured as a function of the sample absorbance at 410 nm. The maximal absorbance (corresponding to maximal hemolysis), Amax, was obtained from the absorbance value of an erythrocyte sample containing only human serum, AS, less the absorbance of a sample containing only the red cells, A0. Thus, Amax =AS -A0. The difference between the absorbance of an erythrocyte sample containing both human serum and inhibitive compound, and the absorbance of a cell sample containing inhibitive compound only, was defined as Asample. The inhibition, IH, was expressed as the fraction (Amax -Asample)/Amax, and IH50 was defined as the concentration of inhibitive compound required to produce a value of IH=1/2.
The 4 substituted spirobenzofuran compounds of example 7 and the disubstituted spirobenzofuran compounds of example 8 were tested for their capacity to inhibit complement-mediated lysis of sheep red blood cells (SRBC) as described in Section 6.6.2 supra with the modification that the human serum used as the complement source was diluted to 1 to 100 in Hepes buffer, instead of […]. The results of the hemolysis assays are shown in FIG. 8 and Tables XI and XII.

For the next test, the target named is T1, factor I (Homo sapiens, UniProt P05156).
T1 construct: purchased Cytotech, San Diego, Calif
T1 sequence (P05156 340-583 limits assumed): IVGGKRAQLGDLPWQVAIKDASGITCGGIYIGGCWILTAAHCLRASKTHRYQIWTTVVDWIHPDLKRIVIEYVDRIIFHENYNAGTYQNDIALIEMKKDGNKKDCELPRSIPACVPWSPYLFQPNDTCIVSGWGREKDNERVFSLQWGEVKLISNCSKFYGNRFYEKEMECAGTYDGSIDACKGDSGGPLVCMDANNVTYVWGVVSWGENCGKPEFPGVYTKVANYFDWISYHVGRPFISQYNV
The experiment in a line: Inhibition of C3b proteolysis by factor I (SDS-PAGE densitometry). The format is biochemical. As to conditions: sCR1 8 nM as cofactor, C3b 1.2 μM, factor I 0.1 μM, 60 min 37° C.; read-out: C3b cleavage by Factor I, concentration yielding 50% inhibition. An excerpt: The reactions were stopped by the addition of reducing SDS-PAGE sample buffer (Laemmli, 1970, Nature, 227:680-685) subjected to electrophoresis on 4-20% polyacrylamide gradient gels, visualized with Coomassie Blue stain, and quantitated by densitometry. Controls lacking factor I and controls with factor I but lacking test compounds were included. Results are reported as the concentration of test compound which inhibited approximately fifty percent (50%) of the C3b a-chain degradation, IC50.

The test system of test [3] is human peripheral blood lymphocytes (PBL). The experiment in a line: Inhibition of proliferation of peripheral blood lymphocytes, 3H-thymidine incorporation. The format is cell-based. The note with it: Lymphocyte, Table IX, 72 h. Here is the method:
The proliferation of human peripheral blood lymphocytes (PBL) in response to phytohemagglutinin (PHA, Well-come) or anti-CD3 monoclonal antibody (OKT-3, Ortho) was assessed by the incorporation of ^3 H-thymidine. Compound 11a was diluted in culture media to the desired concentrations, human PBL were added to a final concentration of 10^6 cells/ml, and then either PHA (Wellcome) or anti-CD3 (OKT3, Ortho) antibody (final concentration, […]) was added to initiate proliferation. The final volume per sample was 100 μl. The cells were incubated for 72 hours after stimulation, pulsed with 1 μCi ^3 H-thymidine per sample for 4 hours, harvested, and counted in a scintillation counter. […] Because cell viability was unaffected by the presence of 11a (see supra), the inhibition apparently was not due to cytotoxic effects.
Background: Dividing cells build labelled thymidine or BrdU into new DNA.

The subject of another test is C5a production. The experiment in a line: Inhibition of C5a production in human serum (aggregated IgG, RIA). The format is biochemical. The note with it: concentration inhibiting C5a production 50% relative to control. Here is the method:
(§1) The ability to inhibit complement was tested by assaying for specific inhibition of C3a and C5a production. For all experiments, a single human serum pool, to be used as a source of complement, was aliquoted and stored frozen at -70° C. Human IgG was heat-aggregated, aliquoted, and stored frozen at -70° C. For each experiment, serum aliquots were equilibrated at 37° C. with varying concentrations of the compounds tested. The classical complement pathway was initiated by the addition of aggregated human IgG. Control samples containing no IgG were always included. After a fixed reaction time of 10 minutes (determined in an earlier time-course study to provide a convenient time interval during which the production of C5a or C3a is nearly complete, i.e., greater than 90%), the levels of the released complement peptides (C5a or C3a) were determined by radioimmunoassay using commercially available radioimmunoassay (RIA) kits (C5a RIA, UpJohn Cat. No. 3250-02; C3a RIA, UpJohn Cat. No. 3245-01; C5a RIA, Amersham Cat. No. RPA.520; C3a RIA, Amersham RPA.518).
(§2) Since a competitive immunoassay was used, complement peptide (C5a and C3a) concentrations varied inversely with the counts. The Counts Bound (CB) for a sample was defined as the total counts (in counts per minute, cpm) measured in the pellet minus the counts measured in a nonspecific binding (NSB) control. The NSB control was a sample containing only tracer peptide (^125 I-labelled) and second precipitating antiserum; it contained no C5a- or C3a-specific antiserum.
(§3) The y-axis in FIG. 2 represents the fraction inhibition. The fraction inhibition is equal to the Counts Bound (CB) for a "sample," less the CB in the "sample with no added compound," divided by the CB for the "no IgG control" less the CB in the "sample with no added compound." [formula]
(§4) FIG. 2 is representative of the data plots obtained from the assays described above.

Test [4] deals with guinea pig serum complement. As to conditions: sensitized sheep erythrocytes, read-out: concentration reducing hemolysis 50%; cited from earlier work.
A further test concerns C3a production. Briefly: Inhibition of C3a production in human serum (aggregated IgG, RIA). The format is biochemical. The note with it: at a concentration of about 8.5 mM. Here is the method:
as §1, §2, §3, §4

The test system of a further test is rat complement. Briefly: Inhibition of complement-mediated hemolysis, rat serum as complement source. As to conditions: Table XIII; read-out: IH50 for Rat Complement. Type of test: biochemical.
Setting [5] is: Table XI, human serum diluted 1 to 100, read-out: IH50 Mean.
[6] abbreviates: Table XIII, read-out: IH50 for Human Complement.
Setting [7] is: Table XIV, read-out: Classical pathway IH50.
[8] abbreviates: Table XII, human serum diluted 1 to 100, read-out: IH50 Mean.

Where “and” joins values, the source holds several entries; their conditions need not be identical. Equal values may be shown once. Where a name gives a salt, the structure may show the parent alone. Read-outs that look alike come from different tables or passages of the source. Some results are limits rather than exact numbers.

Take `COc1cc(C(=O)O)c(C=O)c2c1CC1(CCCCC1)O2` [Compound 68, 6-carboxy-7-formyl-4-methoxyspiro[benzofuran-2(3H)-cyclohexane]]: the IC50 was 1.36 mM in [1]; 164 µM in the test on human complement (setting [5]); 100 µM and 164 µM with human complement (setting [6]); 160 µM with human complement (setting [7]); 150 µM on factor I. Further, in test [2], the “Graft survival time Mean ± SEM” value was 142 ± 76 min. The “graft survival relative to controls” value in test [2] is “prolonged graft survival times in 2 of the 3 animals”. Also, the Graft survival time in [2] is 7 min and 150 min and 270 min. Besides, the “effectiveness in inhibiting complement-mediated hemolysis compared with K76COOH” value with human complement is on record as “more effective”.
Turning to `CC1CCC2C(C)(C)C(O)C(O)CC2(C)C12Cc1c(O)cc(C(=O)O)c(C=O)c1O2` (stereo not shown) [K-76 COONa, reference compound], the IC50 was 500 µM in test [3] (PHA stimulation, read-out: IP50 PHA-stimulated PBL); 500 µM in test [3] (anti-CD3 (OKT-3) stimulation, read-out: IP50 OKT-3-stimulated PBL); 3 mM in the test on C5a production; 570 µM with human complement (Table VII, human serum, read-out: IHO50); 341 µM in [4]. Also, the “inhibition of C3a production” value in the test with C3a production is listed as “Only marginal inhibition”.
Consider `COc1cc(C(=O)O)cc2c1CC1(CCCCC1)O2` [Compound 44a, 6-CARBOXYL-4-METHOXYSPIRO[BENZOFURAN-2(3H)-CYCLOHEXANE] SODIUM SALT], for which the IC50 in the test with rat complement is 17.3 mM; in test [1], over 5.03 mM; in the test on human complement (setting [5]), 530 µM; in the test on human complement (setting [8]) it was 532 µM; in the test on human complement (setting [6]), 538 µM; in the test with human complement (setting [7]), 530 µM. At factor I, the IC50 was found to be 2740 µM. Also, the “Graft survival time Mean ± SEM” value in [2] amounted to 8 min. Moreover, the Graft survival time in test [2] (SODIUM SALT) was 7 min and 9 min.
“sCR1: soluble human recombinant complement receptor type 1, used as a positive control in the in vitro assays”: the IC50 in the test with rat complement was determined as 1.5e-06 mM; in the test on human complement (setting [6]), 0.0009 µM.
On to `CC1CCC2C(C)(C)C(O)C(O)CC2(C)C12Cc1c(O)cc(C(=O)O)c(C=O)c1O2` (stereo not shown) [K76COOH, reference compound], for which the IC50 in [1] turned out to be 0.85 mM; in the test with human complement (setting [5]) it was 570 µM; in the test with human complement (setting [8]), 570 µM; in the test on human complement (setting [7]) it was 570 µM; on factor I, 110 µM.
